Data from patent publication US5736380A, “Maltose-trehalose converting enzyme, and preparation and uses thereof” (Kabushiki Kaisha Hayashibara Seibutsu Kagaku Kenkyujo, priority 1993, dated 1998).

Columns and labels:
[1] = Physicochemical property of trehalose: solubility in water; settings: at 25° C., for anhydrous trehalose
Protocol: A high-purity trehalose specimen prepared by the method in Experiment 8 was studied on its physicochemical property. As a result, the melting point was determined as 97.0° C., the specific rotation was [α]D^20 +199° […].

[2] = Utilization test in vivo (blood sugar- and insulin-levels after oral administration); settings: 30 g as 20 w/v % aqueous solution, orally, healthy male volunteers
Protocol: In accordance with the method as reported by H. Atsuji et al. in Journal of Clinical Nutrition, Vol.41, No.2, pp.200-208 (1972), 30 g of the high-purity trehalose specimen with a purity of 99.8%, d.s.b., in Experiment 8 was prepared into a 20 w/v % aqueous solution which was then orally administered to 3 healthy male volunteers, and their bloods were sampled at prescribed time intervals, followed by the measurements of the blood sugar- and insulin-levels. As a control glucose was used. […] Thus, the present trehalose and saccharide composition containing the same are suitably used as an energy-supplementing saccharide.

[3] = Acute toxicity test, oral; type: in vivo; settings: mouse, in vivo, mice, not so accurate
Protocol: (§1) By using mice, the high-purity trehalose specimen with a purity of 99.8%, d.s.b., prepared in Experiment 8 was orally administered to the mice for its acute toxicity test. […] Though it is not so accurate, the LD50 was determined to be 50 g/kg or higher.

mice = test: Acute toxicity test, oral; type: in vivo; settings: highest level of dose administrable
Protocol: as §1

[4] = target: T1, maltose-trehalose converting enzyme derived from Pimelobacter sp. R48 (Pimelobacter sp., UniProt P72235); test: Action on saccharides (TLC before and after enzymatic reaction); type: biochemical; settings: 20° C., pH 7.0, 24 hours
T1 construct: The culture obtained in Experiment 1 was centrifuged to obtain an about 0.5 kg wet cells; endogenous in cells; host or cells: Pimelobacter sp; R48 (FERM BP-4315), enzyme purified from the disrupted wild-type cells
T1 sequence (P72235 1-573): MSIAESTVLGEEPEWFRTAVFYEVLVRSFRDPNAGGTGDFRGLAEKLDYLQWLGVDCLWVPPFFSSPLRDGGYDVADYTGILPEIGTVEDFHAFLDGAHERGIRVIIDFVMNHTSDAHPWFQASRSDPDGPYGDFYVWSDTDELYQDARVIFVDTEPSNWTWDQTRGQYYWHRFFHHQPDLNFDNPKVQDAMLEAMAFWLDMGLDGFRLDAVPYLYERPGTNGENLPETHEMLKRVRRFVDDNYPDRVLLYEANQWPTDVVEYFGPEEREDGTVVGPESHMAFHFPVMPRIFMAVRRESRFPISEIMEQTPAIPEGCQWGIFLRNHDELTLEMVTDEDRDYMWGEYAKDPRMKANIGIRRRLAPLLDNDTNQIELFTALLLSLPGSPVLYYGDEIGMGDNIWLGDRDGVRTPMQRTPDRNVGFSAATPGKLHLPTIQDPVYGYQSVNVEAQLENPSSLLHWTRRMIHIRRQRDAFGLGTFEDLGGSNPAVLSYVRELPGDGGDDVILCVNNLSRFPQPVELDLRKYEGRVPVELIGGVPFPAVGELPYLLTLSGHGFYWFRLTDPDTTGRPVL
Protocol: A variety of saccharides were tested for determining whether they could be used as a substrate for the present enzyme. Glucose, maltose, maltotriose,maltotetraose, maltopentaose, maltohexaose, maltoheptaose, soluble starch, amylose having an average polymerization degree of 18, trehalose, neotrehalose, gentiobiose, kojibiose, isomaltose, cellobiose, maltitol, sucrose, maltulose, turanose, paratinose, trehalulose or lactose was prepared into a solution. A solution containing glucose and the equal amount of α-glucose 1-phosphate or β-glucose 1-phosphate was prepared.
(§2) The solutions were respectively mixed with 2 units/g substrate, d.s.b., of a maltose-trehalose converting enzyme obtained by the method in Experiment 2, adjusted their substrate concentrations to 5 w/v %, and subjected to enzymatic reaction at 20° C. and pH 7.0 for 24 hours. The solutions before and after their enzymatic reactions were subjected to thin layer chromatography (TLC) using "[…] 60 (20×20 cm)", an aluminum plate for TLC commercialized by Merck & Co., Inc., Rahway, USA, for determining whether the present enzyme acts on the saccharides. The resultant products were developed once on the plates by using a developing solvent system of 1-butanol, pyridine and water (=6:4:1 by volume). The products on the plates were colored by spraying thereto a 20 v/v % sulfuric acid in methanol, and heating the plates at 110° C. for 10 min.

[5] = tested on: Partially purified enzymes derived from known microorganisms of the genus Thermus; test: Action on saccharides, partially purified enzymes; type: biochemical; settings: method of Experiment 18
Protocol: (§3) A variety of saccharides were tested for determining whether they could be used as a substrate for the present enzyme from Thermus aquaticus (ATCC 33923), obtained in accordance with the method in Experiment 4 except for setting the reaction temperature to 50° C. Similarly as the enzymes from Pimelobacter sp.
Among conventional microorganisms, a microorganism which had been confirmed its ability to form the present maltose-trehalose converting enzyme was incubated in an Erlenmeyer flask for 48 hours in accordance with Experiment 15. After analyzed the enzyme activity, the resultant culture was subjected to a cell disrupting apparatus in accordance with Experiment 16. From the resultant mixture a supernatant was prepared and dialyzed to obtain a partially purified enzyme, followed by analyzing the property in accordance with Experiment 17.
Partially purified enzymes derived from known microorganisms of the genus Thermus as shown in Table 12 were studied on their action on a variety of saccharides in accordance with the method in Experiment 18.

[6] = target: enzyme from Pseudomonas putida H262 (Pseudomonas putida, UniProt Q88FN0); test: Action on saccharides (TLC), 35° C.; type: biochemical
Protocol: A variety of saccharides were tested for determining whether they could be used as a substrate for the present enzyme.
as §2
as §3, with “Pseudomonas putida H262” for “Thermus aquaticus (ATCC 33923),”, “obtained in Experiment 10” for “obtained”, “35°” for “50°”, “enzyme from Pseudomonas putida H262, the enzyme” for “enzymes”

enzyme from Pseudomonas putida H262, sequence (Q88FN0 entry or part of it): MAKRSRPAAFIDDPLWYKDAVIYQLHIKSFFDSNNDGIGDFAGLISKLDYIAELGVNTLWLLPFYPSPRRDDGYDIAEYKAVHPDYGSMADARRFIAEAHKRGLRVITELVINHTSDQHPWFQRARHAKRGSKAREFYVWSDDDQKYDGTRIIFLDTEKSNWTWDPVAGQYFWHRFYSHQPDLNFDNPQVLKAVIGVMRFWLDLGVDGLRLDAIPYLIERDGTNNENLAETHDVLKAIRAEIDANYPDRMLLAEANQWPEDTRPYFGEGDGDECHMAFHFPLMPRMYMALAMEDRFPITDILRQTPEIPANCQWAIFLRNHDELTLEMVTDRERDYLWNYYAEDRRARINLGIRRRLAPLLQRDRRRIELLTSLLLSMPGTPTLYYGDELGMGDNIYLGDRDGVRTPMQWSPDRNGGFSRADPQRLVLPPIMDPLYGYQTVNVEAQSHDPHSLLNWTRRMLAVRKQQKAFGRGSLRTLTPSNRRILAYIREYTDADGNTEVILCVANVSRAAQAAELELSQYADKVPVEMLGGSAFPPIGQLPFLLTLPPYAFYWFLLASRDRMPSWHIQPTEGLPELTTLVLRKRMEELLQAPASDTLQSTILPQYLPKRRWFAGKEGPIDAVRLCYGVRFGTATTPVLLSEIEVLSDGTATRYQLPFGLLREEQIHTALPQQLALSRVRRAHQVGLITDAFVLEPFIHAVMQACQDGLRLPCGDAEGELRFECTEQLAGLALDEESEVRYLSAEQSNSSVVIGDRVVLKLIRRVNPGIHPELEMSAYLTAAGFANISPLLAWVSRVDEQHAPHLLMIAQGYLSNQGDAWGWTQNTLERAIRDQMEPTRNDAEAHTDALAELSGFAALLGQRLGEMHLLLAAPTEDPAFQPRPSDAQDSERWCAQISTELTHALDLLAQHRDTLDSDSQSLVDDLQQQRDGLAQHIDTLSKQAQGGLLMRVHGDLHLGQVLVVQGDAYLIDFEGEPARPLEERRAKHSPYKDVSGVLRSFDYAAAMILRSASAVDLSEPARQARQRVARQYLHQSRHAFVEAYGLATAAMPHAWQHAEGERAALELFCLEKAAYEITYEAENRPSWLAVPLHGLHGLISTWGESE

Row | SMILES | solubility in water [1] | blood sugar- and insulin-levels compared with glucose control [2] | time of the maximum of blood sugar-level after the administration [2] | time of the maximum of insulin-level after the administration [2] | LD50 [3] | mortality (mice) | action of enzyme on saccharide [4] | action of enzyme on saccharide [5] | action of enzyme on saccharide [6] | Action of enzyme ([4]; 2 units/g substrate, substrate 5 w/v %)
1 | OC[C@H]1O[C@H](O[C@H]2O[C@H](CO)[C@@H](O)[C@H](O)[C@H]2O)[C@H](O)[C@@H](O)[C@@H]1O [high-purity trehalose specimen, trehalose] | 77.0 g | behaved similarly as glucose | 0.5 to 1 h | 0.5 to 1 h | ≥ 50000 mg/kg | no mouse died | – | – | – | –
2 | OC[C@H]1O[C@H](O[C@H]2O[C@H](CO)[C@@H](O)[C@H](O)[C@H]2O)[C@H](O)[C@@H](O)[C@@H]1O [Trehalose] | – | – | – | – | – | – | only acts on | specifically acted on | specifically acted on | –
3 | OC[C@H]1O[C@H](O[C@H]2[C@H](O)[C@@H](O)[C@H](O)O[C@@H]2CO)[C@H](O)[C@@H](O)[C@@H]1O [Maltose] | – | – | – | – | – | – | only acts on | specifically acted on | specifically acted on | + +
